From paper PMC11191095, “QSAR Reveals Decreased Lipophilicity of Polar Residues Determines the Selectivity of Antimicrobial Peptide Activity” (ACS Omega, 2024)
Values joined by “and” are separate entries in the source; they are usually repeats but may differ in a detail not shown here. Equal entries are not always repeated. Where a SMILES comes first, the peptide text is derived from it.

Columns and labels:
HaCat cell line = test: In vitro HaCat cytotoxicity (MTT); type: cell-based, human; details: 21 h exposure, OD570, relative to untreated control
Description: The HaCat cell line (Cellonex, South Africa) was cultured in Dulbecco’s Modified Eagle Medium (DMEM) supplemented with 10% heat-inactivated fetal calf serum (FCS) and 1% antibiotic-antimycotic (Abs) and maintained at 5–10% CO2, 37 °C, 95% humidity. For cytotoxicity screening, 5.56 × 10^4 cells/mL were plated in a 96-well plate. After 24 h incubation, the cells are initially exposed to each peptide at a concentration of 256 μg/mL or 0.1% Triton-X-100 as the control for 21 h. If cytotoxicity was observed, at a level of significance of p < 0.0001 compared with the untreated control after 21 h, a dose-response assay was undertaken. Cell viability was determined by adding 10% 3-(4,5-dimethyl-2-thiazolyl)-2,5-diphenyl-2H-tetrazolium bromide (MTT) (1 mg/mL), to each well and after a further 3 h incubation the media was discarded, and the formazan crystals dissolved by adding 25% DMSO in ethanol. The absorbance was measured at OD570 by using the FLUOstar Omega multidetection microplate reader (BMG Labtech). Percentage cell viability was calculated relative to the untreated control. The LC50 was defined as the concentration of AMP treatment that results in 50% lethality of HaCat cells and was determined from the dose-response curves.

[1] = test system: S. aureus (MRSA) NCTC 13616; test: microbe, parasite or virus in culture; type: cell-based, Staphylococcus aureus; details: NCTC 13616, 20 h
How it was run: (§1)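 Peptides 128→2 μg/mL, 2-fold series; inoculum ~5 × 10^5 CFU/mL from overnight culture (OD600 0.01, mixed 1:1). MHB non-cation-adjusted for bacteria, RPMI 1640 + 2% glucose for fungi. 37 °C, 20 h, OD600. MIC50/MIC90 at 50%/90% inhibition; n ≥ 3.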

S. aureus (MRSA) USA300 = test: microbe, parasite or virus in culture; type: cell-based, Staphylococcus aureus; details: USA300, 20 h
How it was run: as §1

[2] = test system: S. aureus (MSSA) ATCC 9144; test: microbe, parasite or virus in culture; type: cell-based, Staphylococcus aureus; details: ATCC 9144, 20 h
How it was run: as §1

E. coli NCTC 12923 = test: microbe, parasite or virus in culture; type: cell-based, Escherichia coli; details: NCTC 12923, 20 h
How it was run: as §1

E. coli LEC001 = test: microbe, parasite or virus in culture; type: cell-based, Escherichia coli; details: LEC001, 20 h
How it was run: as §1

C. auris TDG 1912 = test: microbe, parasite or virus in culture; type: cell-based, Candida auris; details: TDG 1912, 20 h
How it was run: as §1

K. pneumoniae M6 = test: microbe, parasite or virus in culture; type: cell-based, Klebsiella pneumoniae; details: M6, 20 h
How it was run: as §1

K. pneumoniae NCTC 13368 = test: microbe, parasite or virus in culture; type: cell-based, Klebsiella pneumoniae; details: NCTC 13368, 20 h
How it was run: as §1

P. aeruginosa NCTC 13437 = test: microbe, parasite or virus in culture; type: cell-based, Pseudomonas aeruginosa; details: NCTC 13437, 20 h
How it was run: as §1

[3] = test system: C. parapsilosis NCPF 3209; test: microbe, parasite or virus in culture; type: cell-based; details: NCPF 3209, 20 h
How it was run: as §1

C. albicans NCPF 3281 = test: microbe, parasite or virus in culture; type: cell-based; details: NCPF 3281, 20 h
How it was run: as §1

C. krusei NCPF 3876 = test: microbe, parasite or virus in culture; type: cell-based; details: NCPF 3876, 20 h
How it was run: as §1

C. glabrata NCPF 8018 = test: microbe, parasite or virus in culture; type: cell-based; details: NCPF 8018, 20 h
How it was run: as §1

C. tropicalis NCPF 8760 = test: microbe, parasite or virus in culture; type: cell-based; details: NCPF 8760, 20 h
How it was run: as §1

A. baumannii ATCC 17978 = test: microbe, parasite or virus in culture; type: cell-based, Acinetobacter baumannii; details: ATCC 17978, 20 h
How it was run: as §1

A. baumannii AYE = test: microbe, parasite or virus in culture; type: cell-based, Acinetobacter baumannii; details: AYE, 20 h
How it was run: as §1

human erythrocytes = test: In vitro hemolytic activity; type: cell-based; details: human erythrocytes in PBS, 1 h, 37 °C, OD550; from dose response curves
Description: Potential erythrocyte hemolysis was tested by incubating serial dilutions of the AMPs in PBS with freshly collected erythrocytes at a ratio of 1:1 in 96-well polypropylene V-shape plates for 1 h at 37 °C. Control wells were treated with 0.1% Triton-X-100 to ensure complete lysis or PBS-only to represent no lysis. The erythrocytes were collected by centrifugation and the OD550 of the supernatant was measured using a plate reader. The percentage hemolysis was calculated as [drawing 1] 1 where Apeptide is the absorbance value of erythrocytes exposed to a known peptide concentration, Agrowth control is the absorbance of erythrocytes exposed to 0.1% Triton-X-100 and Ablank is the absorbance of erythrocytes exposed to the PBS. The concentrations at which a peptide caused 10% (HC10) and 50% (HC50) hemolysis was determined from the dose response curves.

CC[C@H](C)[C@H](NC(=O)[C@H](CCCCN)NC(=O)[C@H](CC(C)C)NC(=O)[C@H](C)NC(=O)[C@H](C)NC(=O)[C@H](CCCCN)NC(=O)[C@H](CC(C)C)NC(=O)[C@H](C)NC(=O)[C@H](CCCCN)NC(=O)CNC(=O)[C@H](CC(C)C)NC(=O)[C@H](Cc1ccccc1)NC(=O)[C@H](CO)NC(=O)CNC(=O)[C@H](Cc1ccccc1)NC(=O)CN)C(=O)NCC(=O)N[C@@H](C)C(=O)N[C@@H](CC(N)=O)C(=O)N[C@H](C(=O)N[C@@H](CC(C)C)C(=O)NCC(=O)NCC(=O)N[C@@H](C)C(=O)N1CCC[C@H]1C(=O)N[C@@H](CCC(N)=O)C(=O)N[C@@H](CCC(N)=O)C(=O)O)C(C)C [CPF-P3] (H-GFGSFLGKALKAALKIGANVLGGAPQQ-OH)
% HaCat cell death at initial screening (256μg/mL) ± SD (HaCat cell line): 39.9 ±12.3% and 39.9% | Modal MIC [1]: 1.5 µM | Modal MIC (S. aureus (MRSA) USA300): 2.9 µM | Modal MIC [2]: 1.5 µM | Modal MIC (E. coli NCTC 12923): 2.9 µM | Modal MIC (E. coli LEC001): 2.9 µM | Modal MIC50 (C. auris TDG 1912): > 47 µM | Modal MIC90 (C. auris TDG 1912): > 47 µM | Modal MIC (K. pneumoniae M6): 11.8 µM | Modal MIC (K. pneumoniae NCTC 13368): 11.8 µM | Modal MIC (P. aeruginosa NCTC 13437): 23.5 µM | Modal MIC50 [3]: > 47 µM | Modal MIC90 [3]: > 47 µM | Modal MIC50 (C. albicans NCPF 3281): > 47 µM | Modal MIC90 (C. albicans NCPF 3281): > 47 µM | Modal MIC50 (C. krusei NCPF 3876): 23.5 µM | Modal MIC90 (C. krusei NCPF 3876): 23.5 µM | Modal MIC50 (C. glabrata NCPF 8018): > 47 µM | Modal MIC90 (C. glabrata NCPF 8018): > 47 µM | Modal MIC50 (C. tropicalis NCPF 8760): 2.9 µM | Modal MIC90 (C. tropicalis NCPF 8760): 5.8 µM | Modal MIC (A. baumannii ATCC 17978): 1.5 µM | Modal MIC (A. baumannii AYE): 2.9 µM

CC[C@H](C)[C@H](NC(=O)[C@H](C)NC(=O)[C@H](CCCCN)NC(=O)[C@H](CCCNC(=N)N)NC(=O)[C@@H](NC(=O)[C@H](CC(C)C)NC(=O)[C@H](CO)NC(=O)[C@H](Cc1ccccc1)NC(=O)[C@H](CC(C)C)NC(=O)[C@@H](N)Cc1ccccc1)[C@@H](C)CC)C(=O)NCC(=O)NCC(=O)N[C@@H](CC(C)C)C(=O)N[C@H](C(=O)N[C@@H](CO)C(=O)N[C@@H](C)C(=O)N[C@@H](Cc1ccccc1)C(=O)N[C@@H](CCCCN)C(=O)O)[C@@H](C)CC [A3]
% HaCat cell death at initial screening (256μg/mL) ± SD (HaCat cell line): 100 ± 9.7% | HC10 (concentration causing 10% hemolysis) (human erythrocytes): 9 µg/mL

CC[C@H](C)[C@H](NC(=O)[C@H](C)NC(=O)[C@H](CCCCN)NC(=O)[C@@H]1CCCN1C(=O)[C@@H](NC(=O)[C@H](CC(C)C)NC(=O)[C@H](CCCCN)NC(=O)[C@H](Cc1ccccc1)NC(=O)[C@H](CC(C)C)NC(=O)[C@@H](N)Cc1ccccc1)[C@@H](C)CC)C(=O)N[C@@H](CCCCN)C(=O)N[C@@H](CCCCN)C(=O)N[C@@H](CC(C)C)C(=O)N[C@H](C(=O)N[C@@H](CO)C(=O)N[C@@H](CCCCN)C(=O)N[C@@H](Cc1ccccc1)C(=O)N[C@@H](CCCCN)C(=O)O)[C@@H](C)CC [AamAP1-Lys] (H-FLFKLIPKAIKKLISKFK-OH)
% HaCat cell death at initial screening (256μg/mL) ± SD (HaCat cell line): 99.1 ± 8.7% | HC10 (concentration causing 10% hemolysis) (human erythrocytes): 94 µg/mL
